Entries after “also recorded” stand apart in the source; their conditions may differ.
Assays:
HRV-C3 [1] = test: HRV-C3 serial passage in nasal organoids with CYT387 or DMSO (viral load by RT-qPCR); type: cell-based, human rhinovirus C; settings: human nasal organoids, CYT387 vs DMSO, 100 viral gene copy/cell, 96 h.p.i.
Procedure: We inoculated nasal organoids with the HRV-C3+ medium collected from organoids infected with an HRV-C3+ clinical specimen in the presence of CYT or DMSO and collected culture media at 96 h.p.i. Due to the high viral load in DMSO-treated nasal organoids in a preliminary experiment, we changed the experimental design. Briefly, the virus-containing media from CYT- and DMSO-treated organoids were brought forward to the next round of infection with the CYT and DMSO treatment, respectively (FIG. 3A). […] Nonetheless, in the absence of CYT, nasal organoids derived from two different donors sustained four consecutive passages of HRV-C3 (FIG. 3B). We also tested HRV-C11+ (FIG. 3C) and HRV-C15+ (FIG. 3D) medium (the medium collected from organoids infected with an HRV-C11+ and HRV-C15+ clinical specimen respectively) in nasal organoids derived from another donor. The two subtypes of HRV-C were serially passaged three times with high viral loads, and more passages could be furthered, if necessary. Overall, nasal organoids per se sustained serial propagation of HRV-C without any intervention. […] HRV-C virions released from the nasal organoids were concentrated and applied to transmission electron microscope (TEM) examination. Virion particles sized around 30 nm, and empty capsid particles were readily discernible (FIG. 3F). […]

HRV-C3 [2] = test: HRV-C3 replication and serial passage in airway organoids with CYT387 or DMSO (viral load by RT-qPCR); type: cell-based, human rhinovirus C; settings: human airway organoids; for serial HRV-C propagation (P1-P5) and viral load versus DMSO-treated organoids: 1 μg/ml CYT387, media harvested at 96 h.p.i.
Procedure: We examined HRV-C replication in airway organoids in the presence or absence of CYT387 (FIG. 2A). Briefly, we inoculated an HRV-C3+ medium (medium collected from organoids infected by an HRV-C3+ clinical specimen) onto the airway organoids pre-treated with 1 μg/ml CYT387 or DMSO. The infected organoids were further incubated with CYT387 (CYT thereafter) or DMSO for 96 hours, after which we harvested the culture medium (P1) to examine viral growth. P1 media from CYT- and mock-treated organoids were brought forward to P2 passage in the presence of CYT and DMSO, respectively (FIG. 2A). […] In the following P3 passage, we had to inoculate CYT-treated P2 media onto airway organoids, in which we continued CYT or DMSO treatment to verify the enhancement effect of CYT. This CYT-treated media inoculation, followed by CYT or DMSO treatment, was repeated in the subsequent P4 and P5 passage.
A total of 9 HRV-C positive archived nasopharyngeal specimens from clinical patients were used for the study. Mature human airway and nasal organoids growing on 24-transwell inserts were washed twice with the basal medium (Advanced DMEM/F-12 (Gibco) supplemented with 1% HEPES, 1% GlutaMAX, and 1% Penicillin/Streptomycin), followed by virus inoculation with the indicated viral gene copy and subsequent incubation in the PD medium (PneumaCult-ALI medium (STEMCELL Technologies) supplemented with 10 μM DAPT and 10 μM Y27632), at 37° C. for 4 h. After incubation, the airway or nasal organoids were washed 3 times with the basal medium to remove residual inoculum. The apical and basolateral chambers were replenished with 300 μl and 500 μl PD medium, respectively. As for CYT387 treatment, airway and nasal organoids were pre-incubated in the PD medium with 1 μg/ml CYT387 (Invivogen, inh-cy87) or DMSO overnight. After virus inoculation, PD medium supplemented with 1 μg/ml CYT387 or DMSO was dispersed into apical and basolateral chambers to maintain the organoids. To assess the effect of temperature on viral growth, we infected nasal organoids with HRV-C3 and HRV-A1 at 100 viral gene copy/cell and maintained the organoids at 33° C. or 37° C. […] Culture media were harvested from the infected organoids at the indicated h.p.i. to detect viral replication. To investigate the antiviral effect of inhibitors on HRV-C replication, organoids were inoculated with HRV-A1 or HRV-C3 at 1000 viral gene copy/cell and incubated with the PD medium in the presence of 1 μM Rupintrivir, 3 μM Itraconazole, or DMSO. The culture media were collected at the indicated h.p.i. for viral load detection. […]

HRV-C3 [3] = test: Antiviral inhibition in airway organoids infected with HRV-C3 (viral load by RT-qPCR); type: cell-based, human rhinovirus C; settings: human airway organoids, 1 μM Rupintrivir or 3 μM Itraconazole, 1000 viral gene copy/cell, compared with HRV-A
Procedure: (§1) We then performed an antibody-blocking experiment in nasal organoids to assess the role of CDHR3 on HRV-C replication. We examined HRV-C replication in the nasal organoids in the presence of two a-CDHR3 antibodies or an isotypic IgG. […] Itraconazole^32, a repurposed antifungal drug with documented efficacy against rhinoviruses, was also tested.
(§2) A total of 9 HRV-C positive archived nasopharyngeal specimens from clinical patients were used for the study. Mature human airway and nasal organoids growing on 24-transwell inserts were washed twice with the basal medium (Advanced DMEM/F-12 (Gibco) supplemented with 1% HEPES, 1% GlutaMAX, and 1% Penicillin/Streptomycin), followed by virus inoculation with the indicated viral gene copy and subsequent incubation in the PD medium (PneumaCult-ALI medium (STEMCELL Technologies) supplemented with 10 μM DAPT and 10 μM Y27632), at 37° C. for 4 h. After incubation, the airway or nasal organoids were washed 3 times with the basal medium to remove residual inoculum. The apical and basolateral chambers were replenished with 300 μl and 500 μl PD medium, respectively. As for CYT387 treatment, airway and nasal organoids were pre-incubated in the PD medium with 1 μg/ml CYT387 (Invivogen, inh-cy87) or DMSO overnight. […]

HRV-A1 = test: Antiviral inhibition in airway organoids infected with HRV-A1 (viral load by RT-qPCR); type: cell-based, human rhinovirus A; settings: human airway organoids, 1 μM Rupintrivir or 3 μM Itraconazole, 1000 viral gene copy/cell, compared with HRV-C
Procedure: as §1, §2

| SMILES | viral growth (HRV-C3 [1]) | serial HRV-C propagation (P1-P5) and viral load versus DMSO-treated organoids (HRV-C3 [2]) | serial HRV-C propagation (P1-P5) and viral load versus DMSO-treated organoids (HRV-C3 [2]; listed as CYT) | viral replication in P2 passage (HRV-C3 [2]; 1 μg/ml CYT387, no viral growth in DMSO-treated organoids) | viral load in P1 media (HRV-C3 [2]; 1 μg/ml CYT387 vs DMSO, first passage, 96 h.p.i.) | inhibitory effect on HRV-C (relative viral load versus DMSO-treated organoids) (HRV-C3 [3]) | inhibitory effect on HRV-A (relative viral load versus DMSO-treated organoids) (HRV-A1) |
| --- | --- | --- | --- | --- | --- | --- | --- |
| N#CCNC(=O)c1ccc(-c2ccnc(Nc3ccc(N4CCOCC4)cc3)n2)cc1 [CYT387, Momelotinib] | significantly boosted viral growth | enabled serial propagation | consecutively passaged five times; also recorded: higher viral load | sustained robust viral replication | elevated viral load |  |  |
| CCOC(=O)/C=C/[C@H](C[C@@H]1CCNC1=O)NC(=O)[C@@H](CC(=O)[C@@H](NC(=O)c1cc(C)on1)C(C)C)Cc1ccc(F)cc1 [Rupintrivir] |  |  |  |  |  | more prominent inhibitory effect | more prominent inhibitory effect of both drugs on HRV-C than HRV-A |

— patent US20250257325A1, “SYSTEM AND COMPOSITION OF R[…] FOR P[…] VIRUSES AND METHODS THEREOF” (The University of Hong Kong, priority 2024, published 2025)
